From the supplement of paper PMC10307832

Compound: CCN(CCO)CCCC(C)Nc1ccnc2cc(Cl)ccc12 [Hydroxychloroquine]
Assay: relative viability (nuclei count vs DMSO), 5 days (fraction); higher = more cells survive
Summary of the method: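 For viability, nuclei in each treated well were divided by nuclei in vehicle wells and the median across plates was taken. Lung cancer cell lines in 1536-well plates were pinned with five library-drug doses (not always all listed) spaced by √10, cultured 5 days without medium change, and imaged at 4× after Hoechst staining, with plates passing only at control CV below 25% and at least one doubling.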

Cell Line | relative viability (0.5 µM) | relative viability (1.581 µM) | relative viability (5 µM) | relative viability (15.81 µM) | relative viability (50 µM)
NCI-H460 | 0.973 | 1 | 1.01 | 1.03 | 1.11
NCI-H1793 | 1.03 | 0.791 | 0.916 | 0.866 | 0.998
NCI-H23 | 1.04 | 0.809 | 0.961 | 0.915 | 1.01
HARA | 1.23 | 0.938 | 0.876 | 1 | 0.903
NCI-H1792 | 0.945 | 1.03 | 0.859 | 0.783 | 0.776
NCI-H1703 | 0.912 | 0.79 | 0.946 | 0.924 | 0.898
NCI-H2342 | 0.986 | 0.897 | 0.987 | 0.991 | 1.13
CAL-12T | 1.01 | 0.973 | 0.957 | 0.979 | 1.02
NCI-H838 | 1.02 | 0.958 | 0.984 | 0.975 | 1.12
NCI-H2085 | 1 | 0.859 | 0.964 | 0.977 | 0.989
NCI-H1395 | 0.887 | 0.847 | 0.81 | 0.83 | 0.854
NCI-H1648 | 0.817 | 1.09 | 0.775 | 0.992 | 0.825
NCI-H520 | 1.07 | 1.01 | 0.906 | 0.923 | 1.07
A549 | 1.01 | 0.945 | 1.03 | 0.928 | 1.08
IA-LM | 0.922 | 0.971 | 0.902 | 0.962 | 0.959
EKVX | 0.962 | 0.902 | 0.893 | 1.02 | 1.01
ChaGo-K-1 | 0.958 | 1.07 | 0.911 | 1.01 | 1.03
NCI-H1755 | 1.05 | 0.899 | 0.928 | 0.99 | 0.941
NCI-H2228 | 1.05 | 0.959 | 0.945 | 1.11 | 1.08
NCI-H2087 | 0.971 | 0.923 | 1 | 1.06 | 0.98
LU99A | 1.01 | 0.874 | 0.938 | 0.951 | 1.02
NCI-H1355 | 1.04 | 0.956 | 1 | 0.983 | 1.05
NCI-H596 | 1.04 | 0.934 | 0.892 | 1.03 | 1.15
NCI-H727 | 1.04 | 0.815 | 1.04 | 0.898 | 0.911
NCI-H661 | 0.966 | 0.93 | 0.921 | 0.976 | 0.994
NCI-H650 | 1 | 0.896 | 0.741 | 1.04 | 0.955

Cell Line | relative viability (0.5 µM) | relative viability (1.581 µM) | relative viability (5 µM) | relative viability (15.81 µM) | relative viability (50 µM)
201T | 0.965 | 0.974 | 0.968 | 0.981 | 1.04
PC-14 | 1.03 | 0.961 | 0.956 | 1.05 | 1.01
UMC-11 | 0.988 | 0.849 | 1.01 | 1.05 | 1.12
PC-3 [JPC-3] | 1.01 | 1.08 | 0.957 | 1.06 | 1.02
LK-2 | 1.01 | 0.96 | 0.941 | 1.14 | 1.24
COR-L23 | 1.06 | 1.17 | 1.16 | 1.08 | 1.03
NCI-H1944 | 0.983 | 0.966 | 0.925 | 0.919 | 0.994
HCC-78 | 1.04 | 0.903 | 1.03 | 1.01 | 0.94
NCI-H2405 | 1.03 | 0.955 | 0.968 | 1 | 1.01
SW 1573 | 0.918 | 0.832 | 0.983 | 1.07 | 1.02
EMC-BAC-2 | 1.05 | 0.824 | 0.953 | 1.02 | 0.912
NCI-H1650 | 0.956 | 1.08 | 0.857 | 0.806 | 0.903
NCI-H647 | 1 | 1.07 | 0.894 | 0.816 | 0.975
LCLC-97TM1 | 1.14 | 1.06 | 1.03 | 0.944 | 0.946
H3255 | 0.982 | 0.946 | 0.974 | 0.951 | 0.951
LXF-289 | 1.06 | 1.01 | 1.03 | 1.02 | 1.07
NCI-H441 | 1.05 | 0.926 | 1.33 | 1.13 | 1.03
LC-2-ad | 1 | 0.982 | 0.996 | 0.998 | 1.02
SK-MES-1 | 1.06 | 0.959 | 1.07 | 1.05 | 0.995
A-427 | 0.995 | 0.945 | 0.964 | 1 | 0.968
NCI-H322M | 0.955 | 0.933 | 0.957 | 0.935 | 0.983
HCC-366 | 1.01 | 0.981 | 0.986 | 1.06 | 1.03
NCI-H1975 | 0.973 | 0.977 | 0.91 | 1 | 1.06
NCI-H1437 | 0.994 | 1 | 0.926 | 0.997 | 1.04
NCI-H2009 | 0.979 | 1.04 | 1.06 | 0.994 | 1.07
NCI-H1651 | 0.974 | 0.981 | 1 | 1.01 | 1.1

Cell Line | relative viability (0.5 µM) | relative viability (1.581 µM) | relative viability (5 µM) | relative viability (15.81 µM) | relative viability (50 µM)
LCLC-103H | 1.01 | 0.932 | 0.998 | 1 | 1.01
NCI-H1666 | 0.986 | 0.944 | 1.01 | 0.966 | 0.952
NCI-H1734 | 0.918 | 0.869 | 0.989 | 0.942 | 1.02
EPLC-272H | 0.963 | 0.843 | 0.98 | 0.94 | 1.08
NCI-H2023 | 1 | 1.03 | 0.941 | 0.981 | 1.13
BEN | 1.04 | 0.894 | 0.977 | 1.06 | 1.07
COR-L 105 | 0.875 | 0.935 | 0.876 | 0.804 | 0.864
ABC-1 | 0.89 | 0.854 | 0.856 | 0.885 | 0.91
HCC-15 | 1.08 | 0.956 | 1.04 | 1.06 | 1.04
NCI-H2170 | 0.969 | 1.15 | 0.992 | 0.995 | 1.15
RERF-LC-KJ | 0.937 | 0.978 | 0.99 | 0.939 | 1.05
NCI-H1993 | 0.974 | 0.842 | 0.939 | 0.883 | 1.02
NCI-H358 | 0.851 | 0.884 | 0.88 | 0.888 | 0.877
NCI-H1563 | 0.946 | 0.744 | 0.912 | 0.99 | 0.966
EBC-1 | 1.01 | 0.897 | 1.05 | 0.973 | 1.13
NCI-H1915 | 0.961 | 1.01 | 0.981 | 1.01 | 1.06
SK-LU-1 | 1.19 | 0.983 | 0.949 | 1.03 | 1.08
LOU-NH91 | 0.96 | 0.794 | 0.944 | 0.95 | 0.901
NCI-H2347 | 1.1 | 0.935 | 1.04 | 0.965 | 1.03
NCI-H2126 | 1.02 | 0.967 | 0.974 | 0.992 | 1.06
HCC-827 | 1.03 | 1.02 | 1.04 | 1.02 | 1.06
Calu-6 | 1.04 | 1.03 | 1 | 1.1 | 1
NCI-H3122 | 0.999 | 0.997 | 0.99 | 1.05 | 1.06
HOP-62 | 1.04 | 1.01 | 1.05 | 1.08 | 1.08
HCC-44 | 1.04 | 0.996 | 1.01 | 1.01 | 1.04
